These are literature values, as cited in patent US8653059B2, “Heterocyclic compounds as dipeptidyl peptidase-IV inhibitors for the treatment or prevention of diabetes” (Merck Sharp & Dohme Corp., priority 2007, dated 2014).

One data set has as its target T1, DPP-4 (Homo sapiens, UniProt P27487).
T1 construct: GRF is rapidly degraded in plasma to GRF[3-44]; host or cells: plasma

A further data set relates to hematopoiesis. As to conditions: mouse model of cyclophosphamide-induced neutropenia; WO 99/56753.
For the next data set, the system named is cardiac allograft. As to conditions: rats; Transplantation 63: 1495-1500 (1997).

T1 sequence (P27487 whole entry, species assumed): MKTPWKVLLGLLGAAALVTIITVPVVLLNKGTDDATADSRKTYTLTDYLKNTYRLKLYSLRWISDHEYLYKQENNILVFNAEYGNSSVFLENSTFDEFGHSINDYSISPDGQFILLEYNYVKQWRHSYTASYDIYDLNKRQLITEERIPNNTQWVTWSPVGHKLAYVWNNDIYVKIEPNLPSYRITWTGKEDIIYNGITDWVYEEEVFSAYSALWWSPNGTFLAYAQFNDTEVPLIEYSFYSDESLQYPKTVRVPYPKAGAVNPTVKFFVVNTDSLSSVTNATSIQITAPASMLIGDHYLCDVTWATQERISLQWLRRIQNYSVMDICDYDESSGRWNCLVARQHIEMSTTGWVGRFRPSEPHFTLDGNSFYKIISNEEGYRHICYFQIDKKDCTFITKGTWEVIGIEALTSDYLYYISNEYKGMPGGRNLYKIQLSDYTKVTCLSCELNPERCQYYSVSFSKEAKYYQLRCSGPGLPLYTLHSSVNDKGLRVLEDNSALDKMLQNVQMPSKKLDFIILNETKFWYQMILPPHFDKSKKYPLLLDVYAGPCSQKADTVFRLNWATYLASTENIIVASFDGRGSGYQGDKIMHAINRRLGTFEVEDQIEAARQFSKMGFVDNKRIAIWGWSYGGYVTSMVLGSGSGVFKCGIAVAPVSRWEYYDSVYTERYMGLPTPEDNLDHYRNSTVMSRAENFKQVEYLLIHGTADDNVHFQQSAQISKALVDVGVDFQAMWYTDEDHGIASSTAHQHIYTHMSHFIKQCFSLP

For diprotin A, the “degradation of GRF in plasma to GRF[3-44]” value on DPP-4 is recorded as “prevented”. With `CC(C)[C@H](N)C(=O)N1CCC[C@H]1B(O)O` [Val-Boro-Pro], in the data set on hematopoiesis, the hematopoiesis result is on record as “stimulated hematopoiesis”. For `CC(C)N1CCC(c2ccccc2)(c2ccccc2)CC1` [Prodipine, Pro-Pro-diphenyl-phosphonate], in the data set with cardiac allograft, the cardiac allograft survival result was “double cardiac allograft survival in rats from day 7 to day 14”.
